In patent US11795177B2, “Substituted quinoline analogs as aldehyde dehydrogenase 1A1 (ALDH1A1) inhibitors” (THE UNITED STATES OF AMERICA, AS REPRESENTED BY THE …, priority 2017, dated 2023):
Structures can show the parent of a compound that is named as a salt.

System: MIA PaCa-2 cells
Assay: MIA PaCa2 cell-based assay (1,536-well high-content imaging ALDEFLUOR assay)
Design: species or system human
Conditions: Homo sapiens, 0.5 h, ALDEFLUOR BAAA substrate 500 nM, 30 minutes
Experimental: Example 359. MIA PaCa2 Cell-Based Assay (In Vitro Assay)
1,536-Well High-Content Imaging ALDEFLUOR Assay
The ALDEFLUOR™ kit was purchased from […] Technologies (Vancouver, Canada; #01700). MIA PaCa-2 cells (5 μL; 1,000 cells/well) were dispensed into black, optical quality (cyclic olefin copolymer) clear bottom, medium binding TC treated 1,536-well plates (Aurora Microplates, Whitefish Mont.) using a Multidrop Combi dispenser (ThermoFisher) and incubated overnight (37° C., 5% CO2, 85% RH). Media (RPMI 1640 (Life Technologies, Carlsbad, Calif.), supplemented with 2 mM L-Glutamine (Life Technologies), 10% HyClone™ fetal bovine serum (FBS, GE Healthcare, Piscataway, N.J.) and 100 U/mL penicillin and 100 μg/mL streptomycin (Life Technologies)) was subsequently removed by centrifuging plates upside down using a plate adaptor to collect media. A solution of BAAA substrate ([…] Technologies) and Hoechst 33342 (ThermoFisher, final concentrations of 500 nM and 0.5 nM, respectively) in ALDEFLUOR™ buffer ([…] Technologies #01700) was dispensed onto cells using a Multidrop Combi followed by immediate transfer (23 nL) of compound or control solutions using a Wako Pin-tool (final percentage of DMSO in the cell plates was 0.5%). Unless otherwise noted, all compounds were assayed as 16-point dilutions spanning a final concentration range of 1.4 nM to 47.8 μM. The neutral and positive assay controls were DMSO and DEAB (4.6 μM), respectively. Cells were incubated for 30 minutes or the indicated amount of time at 37° C., 5% CO2, 85% RH to allow the conversion of BAAA into BAA. Supernatant was subsequently removed by centrifugation as described above, then ALDEFLUOR™ buffer (3 μl) was dispensed by Multidrop Combi before imaging on an IN Cell 2200 (GE Healthcare).
The above assay was modified for an online robotic screening system. After cell plating and overnight incubation, 4 μL of media were removed using a 64-tip metal aspirator head on a Wako aspirator station, leaving 1 μL remaining in the well, followed by a 4 μL dispense of BAAA and Hoechst 33342 in ALDEFLUOR™ buffer, for a final concentration of 500 nM and 0.5 nM, respectively Immediately following the dispense, 23 nL of compound or control solutions were transferred using a Wako Pin-tool. Cells were incubated for 30 minutes at 37° C., 5% CO2, 85% RH, followed by a 4 μL media removal using the Wako aspirator, and a subsequent 3 μL addition of ALDEFLUOR™ buffer. Plates were then immediately read on the IN Cell 2200 as described below.
Image Acquisition and Analysis
For images captured on the IN Cell 2200 widefield automated microscope, a 10×0.45 NA Plan Apo objective lens was used to capture the entire well of the 1,536-well plate using standard DAPI (390/18×, 432/48 m) and FITC (475/28×, 525/48 m) filter sets at 50 msec and 100 msec exposures, respectively. Images were subsequently analyzed using IN Cell Investigator v1.6.2 analysis software's canned Multi-Target Analysis algorithm (GE Healthcare). Hoechst stained nuclei were identified using top hat segmentation with a minimum area of 75 μm^2 and sensitivity of 93. BAA-retaining cells captured via FITC channel, were identified using multiscale top hat segmentation with a minimum area of 100 μm^2 and a sensitivity setting of 16. […] Data were plotted using GraphPad Prism software (GraphPad, San Diego, Calif.).

| IC50 [nM] | SMILES |
| --- | --- |
| 1000 to 10000 | O=C(c1cnc2ccc(F)cc2c1N1CCCCCC1)N1CCN(C(=O)C2CC2)CC1 [Example 71, (4-(azepan-1-yl)-6-fluoroquinolin-3-yl)(4-(cyclopropanecarbonyl)piperazin-1-yl)methanone] |
| 1000 to 10000 | Cc1cc(F)cc2c(N3CCC4(CC3)OCCO4)c(C(=O)N3CCN(C(=O)C4CC4)CC3)cnc12 [Example 73, (4-(cyclopropanecarbonyl)piperazin-1-yl)(6-fluoro-8-methyl-4-(1,4-dioxa-8-azaspiro[4.5]decan-8-yl)quinolin-3-yl)methanone] |
| > 10000 | O=C(c1cnc2ccc(F)cc2c1N1CCC(F)(F)CC1)N1CCN(C(=O)C2CC2)CC1 [Example 63, (4-(cyclopropanecarbonyl)piperazin-1-yl)(4-(4,4-difluoropiperidin-1-yl)-6-fluoroquinolin-3-yl)methanone] |
| 1000 to 10000 | CS(=O)(=O)N1CCN(C(=O)c2cnc3ccc(F)cc3c2N2CCC3(CC2)Cc2ccccc2C3=O)CC1 [Example 201, 1′-(6-fluoro-3-(4-(methylsulfonyl)piperazine-1-carbonyl)quinolin-4-yl)spiro[indene-2,4′-piperidin]-1(3H)-one] |
| > 10000 | COc1ccc2ncc(CN3CCN(C(=O)C4CC4)CC3)c(N3CCC4(CC3)OCCO4)c2c1 [Example 57, Cyclopropyl(4-((6-methoxy-4-(1,4-dioxa-8-azaspiro[4.5]decan-8-yl)quinolin-3-yl)methyl)piperazin-1-yl)methanone] |
| < 500 | CC(C)(C#N)c1ccc(-c2c(C(=O)N3CCN(C(=O)C4CC4)CC3)cnc3ccc(F)cc23)cc1 [Example 264, 2-(4-(3-(4-(cyclopropanecarbonyl)piperazine-1-carbonyl)-6-fluoroquinolin-4-yl)phenyl)-2-methylpropanenitrile] |
| > 10000 | N#CC1CCN(c2c(C(=O)N3CCN(C(=O)C4CC4)CC3)cnc3ccc(F)cc23)CC1 [Cpd. 302, 1-(3-(4-(cyclopropanecarbonyl)piperazine-1-carbonyl)-6-fluoroquinolin-4-yl)piperidine-4-carbonitrile] |
| 1000 to 10000 | CS(=O)(=O)N1CCN(C(=O)c2cnc3ccc(F)cc3c2N2CCC(O)(c3ccccc3)CC2)CC1 [Example 292, (6-fluoro-4-(4-hydroxy-4-phenylpiperidin-1-yl)quinolin-3-yl)(4-(methylsulfonyl)piperazin-1-yl)methanone] |
| > 10000 | O=C(c1cnc2ccccc2c1N1CCC2(CC1)OCCO2)N1CCN(C(=O)C2CC2)CC1 [Example 42, (4-(1,4-dioxa-8-azaspiro[4.5]decan-8-yl)quinolin-3-yl)(4-(cyclopropanecarbonyl)piperazin-1-yl)methanone] |
| < 500 | CN(C)S(=O)(=O)N1CCN(C(=O)c2cnc3ccc(F)cc3c2N2CCC(C)(C#N)CC2)CC1 [Example 157, 4-(4-(4-cyano-4-methylpiperidin-1-yl)-6-fluoroquinoline-3-carbonyl)-N,N-dimethylpiperazine-1-sulfonamide] |
| < 500 | CN(C)C(=O)N1CCN(C(=O)c2cnc3ccc(F)cc3c2-c2ccc(C3(C#N)CC3)cc2)CC1 [Example 265, 4-(4-(4-(1-cyanocyclopropyl)phenyl)-6-fluoroquinoline-3-carbonyl)-N,N-dimethylpiperazine-1-carboxamide] |
| < 500 | CS(=O)(=O)N1CCN(C(=O)c2cnc3ccsc3c2-c2ccc(C3(C#N)CC3)cc2)CC1 [Example 286] |
| < 500 | CS(=O)(=O)N1CCN(C(=O)c2cnc3c(F)cc(F)cc3c2N2CCC(C#N)(c3ccccc3)CC2)CC1 [Cpd. 320, 1-(6,8-difluoro-3-(4-(methylsulfonyl)piperazine-1-carbonyl)quinolin-4-yl)-4-phenylpiperidine-4-carbonitrile] |
| < 500 | N#CC1(c2ccccc2)CCN(c2c(C(=O)Nc3cnn(CC(N)=O)c3)cnc3ccc(F)cc23)CC1 [Cpd. 352, N-(1-(2-amino-2-oxoethyl)-1H-pyrazol-4-yl)-4-(4-cyano-4-phenylpiperidin-1-yl)-6-fluoroquinoline-3-carboxamide] |
| > 10000 | O=C(c1cnc2ccc(F)cc2c1N1CCC(c2ccccc2)CC1)N1CCN(C(=O)C2CC2)CC1 [Example 72, (4-(cyclopropanecarbonyl)piperazin-1-yl)(6-fluoro-4-(4-phenylpiperidin-1-yl)quinolin-3-yl)methanone] |
| 1000 to 10000 | O=C(c1cnc2cc(F)c(F)cc2c1N1CCC2(CC1)OCCO2)N1CCN(C(=O)C2CC2)CC1 [Example 122, (4-(cyclopropanecarbonyl)piperazin-1-yl)(6,7-difluoro-4-(1,4-dioxa-8-azaspiro[4.5]decan-8-yl)quinolin-3-yl)methanone] |
| 1000 to 10000 | O=C(c1cnc2ccc(F)cc2c1N1CCC2(CCCCC2)CC1)N1CCN(C(=O)C2CC2)CC1 [Example 75, (4-(cyclopropanecarbonyl)piperazin-1-yl)(6-fluoro-4-(3-azaspiro[5.5]undecan-3-yl)quinolin-3-yl)methanone] |
| < 500 | CS(=O)(=O)N1CCN(C(=O)c2cnc3ccc(Cl)cc3c2-c2ccc(C3(C#N)CC3)cc2)CC1 [Example 297, 1-(4-(6-chloro-3-(4-(methylsulfonyl)piperazine-1-carbonyl)quinolin-4-yl)phenyl)cyclopropanecarbonitrile] |
| < 500 | N#CC1(c2ccccc2)CCN(c2c(C(=O)N3CCN(C(=O)C4CC4)CC3)cnc3ccc(Cl)cc23)CC1 [Cpd. 313, 1-(6-chloro-3-(4-(cyclopropanecarbonyl)piperazine-1-carbonyl)quinolin-4-yl)-4-phenylpiperidine-4-carbonitrile] |
| > 10000 | O=C(c1cnc2ccc(F)cc2c1N1CCC2(CCCC2)CC1)N1CCN(C(=O)C2CC2)CC1 [Example 62, (4-(cyclopropanecarbonyl)piperazin-1-yl)(6-fluoro-4-(8-azaspiro[4.5]decan-8-yl)quinolin-3-yl)methanone] |
| < 500 | N#CC1(c2ccc(-c3c(C(=O)N4CCN(C(=O)C5CC5)CC4)cnc4ccc(F)cc34)cc2)CC1 [Example 262, 1-(4-(3-(4-(cyclopropanecarbonyl)piperazine-1-carbonyl)-6-fluoroquinolin-4-yl)phenyl)cyclopropanecarbonitrile] |
| 1000 to 10000 | CC1(C)CCN(c2c(C(=O)N3CCN(C(=O)C4CC4)CC3)cnc3ccc(F)cc23)CC1 [Example 65, (4-(cyclopropanecarbonyl)piperazin-1-yl)(4-(4,4-dimethylpiperidin-1-yl)-6-fluoroquinolin-3-yl)methanone] |
| > 10000 | O=C(c1cnc2ccc(F)cc2c1N1CCC(Cc2ccccc2)CC1)N1CCN(C(=O)C2CC2)CC1 [Example 200, (4-(4-benzylpiperidin-1-yl)-6-fluoroquinolin-3-yl)(4-(cyclopropanecarbonyl)piperazin-1-yl)methanone] |
| < 500 | CS(=O)(=O)N1CCN(C(=O)c2cnc3ccc(F)cc3c2N2CCC(C#N)(c3ccccc3F)CC2)CC1 [Example 274, 1-(6-fluoro-3-(4-(methylsulfonyl)piperazine-1-carbonyl)quinolin-4-yl)-4-(2-fluorophenyl)piperidine-4-carbonitrile] |
| 1000 to 10000 | CS(=O)(=O)N1CCN(C(=O)c2cnc3ccc(F)cc3c2N2CCC(C#N)(Cc3ccccc3)CC2)CC1 [Example 245, 4-benzyl-1-(6-fluoro-3-(4-(methylsulfonyl)piperazine-1-carbonyl)quinolin-4-yl)piperidine-4-carbonitrile] |
| 1000 to 10000 | C=CS(=O)(=O)N1CCN(c2c(C(=O)N3CCN(S(C)(=O)=O)CC3)cnc3ccc(F)cc23)CC1 [Example 221, (6-fluoro-4-(4-(vinylsulfonyl)piperazin-1-yl)quinolin-3-yl)(4-(methylsulfonyl)piperazin-1-yl)methanone] |

| SMILES | IC50 [nM] |
| --- | --- |
| COc1ccc2ncc(C(=O)N3CCN(C(=O)C4CC4)CC3)c(N3CCC4(CC3)OCCO4)c2c1 [Example 1, (4-(cyclopropanecarbonyl)piperazin-1-yl)(6-methoxy-4-(1,4-dioxa-8-azaspiro[4.5]decan-8-yl)quinolin-3-yl)methanone, TFA] | 1000 to 10000 |
